From US20220281821A1, “INDAZOLE COMPOUNDS AND THEIR PHARMACEUTICAL COMPOSITIONS” (Jinan University, priority 2019, published 2022)

How the values were obtained:
[1] = target: T1, TRKB (Homo sapiens, UniProt Q16620); test: Z′-LYTE kinase activity assay, TRKB; assay type: biochemical; conditions: ATP 25 uM
T1 construct: purchased life technologies PV3616
Source text: (§1) Kinase activity assay: Z′-LYTE™ technology (detection by fluorescence, enzyme-conjugated format, based on the difference in sensitivity of phosphorylated and non-phosphorylated peptides to proteolytic cleavage) was applied, and using the principle of fluorescence resonance energy transfer (FRET), a Z′-LYTE™ FRET peptide substrate (Z′-LYTE™ Tyrosine 1 Peptide Substrate, Invitrogen, PV3190), and a secondary reaction were used to detect the inhibitory activity of the compounds on TRKs (TRK1, TRK2, TRK3) (life technologies, PV3144, PV3616, PV3617).
(§2) Enzymatic reaction: In a 384-well plate, 5 μL of an enzyme-substrate system (50 mM HEPES pH 7.5, 0.01% BRIJ-35, 10 mM MgCl2, 1 mM EGTA, 2 μM Tyr 01 Peptide Substrate) was added and 5 nL of compound (concentration gradient) was transferred thereto by using the echo520 ultramicro liquid pipetting system. […] After shaking and mixing, centrifuging was performed. A reaction was carried out at 30° C. in the dark for 1.5 hours.
(§3) The data were analyzed as follows:
(§4) Phosphorylation ratio=1−{(emission ratio×F100%−C100%)/[C0%−C100%+emission ratio×(F100%−F0%)]}×100;
(§5) Inhibition rate=100×(1−compound phosphorylation ratio/negative control phosphorylation ratio).
(§6) IC50 values were calculated by using GraphPad Prism 5.0 software.

[2] = target: T2, TRKA (Homo sapiens, UniProt P04629); test: Z′-LYTE kinase activity assay, TRKA; assay type: biochemical; conditions: ATP 400 uM
T2 construct: purchased life technologies PV3144
T2 sequence (P04629 440-796 limits assumed): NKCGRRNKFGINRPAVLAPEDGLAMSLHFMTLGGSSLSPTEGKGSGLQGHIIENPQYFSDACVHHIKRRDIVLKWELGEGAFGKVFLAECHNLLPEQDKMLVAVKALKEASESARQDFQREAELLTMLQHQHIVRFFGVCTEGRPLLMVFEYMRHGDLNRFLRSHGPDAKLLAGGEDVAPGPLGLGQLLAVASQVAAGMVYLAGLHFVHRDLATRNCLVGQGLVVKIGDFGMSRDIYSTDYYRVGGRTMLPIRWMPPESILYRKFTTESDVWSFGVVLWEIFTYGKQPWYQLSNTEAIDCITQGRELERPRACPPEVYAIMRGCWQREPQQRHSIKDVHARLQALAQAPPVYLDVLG
Source text: as §1, §2, §3, §4, §5, §6

[3] = target: T3, BaF3-ETV6-NTRK3 (Homo sapiens, UniProt Q16288); test: Cell proliferation inhibition (CCK-8), BaF3-ETV6-NTRK3 stable strain; assay type: cell-based, mouse; conditions: BaF3-ETV6-NTRK3, 72 hours
T3 construct: fused on or other part: P41212 (Transcription factor ETV6)
T3 sequence (Q16288 whole entry, the tested form may be a part): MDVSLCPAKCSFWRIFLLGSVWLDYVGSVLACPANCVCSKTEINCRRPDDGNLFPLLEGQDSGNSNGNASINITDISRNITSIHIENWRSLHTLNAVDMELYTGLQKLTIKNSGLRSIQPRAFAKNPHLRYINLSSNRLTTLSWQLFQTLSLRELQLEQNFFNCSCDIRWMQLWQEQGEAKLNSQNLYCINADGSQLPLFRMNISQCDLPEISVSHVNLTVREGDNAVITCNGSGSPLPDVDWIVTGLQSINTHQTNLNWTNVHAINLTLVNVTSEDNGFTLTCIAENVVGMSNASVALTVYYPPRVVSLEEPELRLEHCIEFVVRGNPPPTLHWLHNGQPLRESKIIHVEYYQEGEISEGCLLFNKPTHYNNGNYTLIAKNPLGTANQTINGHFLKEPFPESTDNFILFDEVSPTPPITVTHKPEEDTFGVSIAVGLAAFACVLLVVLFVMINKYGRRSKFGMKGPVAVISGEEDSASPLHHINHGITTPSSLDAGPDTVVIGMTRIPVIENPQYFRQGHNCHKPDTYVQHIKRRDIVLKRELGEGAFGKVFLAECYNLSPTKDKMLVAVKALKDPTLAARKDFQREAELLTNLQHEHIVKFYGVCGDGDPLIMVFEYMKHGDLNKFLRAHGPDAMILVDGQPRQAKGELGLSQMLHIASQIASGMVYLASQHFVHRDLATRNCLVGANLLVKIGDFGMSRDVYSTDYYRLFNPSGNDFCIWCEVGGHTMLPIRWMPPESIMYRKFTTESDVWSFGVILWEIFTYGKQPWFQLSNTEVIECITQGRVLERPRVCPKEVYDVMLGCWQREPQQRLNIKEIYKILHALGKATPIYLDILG
Procedure: (§7) The brief steps of stable strain construction are as follows: construct a pCDNA3.1(+) plasmid vector carrying genes such as CD74-NTRK1, ETV6-NTRK2 and ETV6-NTRK3; the plasmid was electroporated into Ba/F3 cells using the Amaxa® Cell Line Nucleofector® Kit V; 48 hours after electroporated, G418 with a final concentration of 1000 μg/ml was added for screening for two weeks, and then IL3 was removed, and continued screening to obtain polyclonal stable strains; then single clones were selected by a limiting dilution method. The stable strains were then identified using positive drugs, WB and gene sequencing; and the monoclonal clones that were identified as completely correct may be used for the study of cell proliferation inhibitory activity of inhibitors.
(§8) Cell proliferation inhibition activity study: the cells in the logarithmic growth phase were seeded into 96-well plates at 8000-12000 cells/well, and inhibitors at different concentrations (0-10 μM) were added the next day, and incubation was continued for 72 hours; then 10 μL of CCK-8 reagent was added to each well, and the incubation was continued for 1-3 hours; and then use a super microplate reader to measure their absorbance values at 450 nm and 650 nm. The half-inhibition concentration (IC50) was calculated using GraphPad Prism 8.0.0.

[4] = target: T4, BaF3-ETV6-NTRK2 (Homo sapiens, UniProt Q16620); test: Cell proliferation inhibition (CCK-8), BaF3-ETV6-NTRK2 stable strain; assay type: cell-based, mouse; conditions: BaF3-ETV6-NTRK2, 72 hours
T4 construct: fused on or other part: P41212 (Transcription factor ETV6)
T4 sequence (Q16620 538-822 limits assumed): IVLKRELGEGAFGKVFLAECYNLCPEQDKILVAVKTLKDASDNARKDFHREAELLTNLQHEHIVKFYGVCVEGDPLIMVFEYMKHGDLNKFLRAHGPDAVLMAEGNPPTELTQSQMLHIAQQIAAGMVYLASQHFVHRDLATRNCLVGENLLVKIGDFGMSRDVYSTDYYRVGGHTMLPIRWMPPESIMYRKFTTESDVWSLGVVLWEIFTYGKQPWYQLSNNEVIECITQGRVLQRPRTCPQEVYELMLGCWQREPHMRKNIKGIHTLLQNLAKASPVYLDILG
Procedure: as §7, §8

[5] = target: T5, TRKC (Homo sapiens, UniProt Q16288); test: Z′-LYTE kinase activity assay, TRKC; assay type: biochemical; conditions: ATP 50 uM
T5 construct: purchased life technologies PV3617
T5 sequence (Q16288 32-839): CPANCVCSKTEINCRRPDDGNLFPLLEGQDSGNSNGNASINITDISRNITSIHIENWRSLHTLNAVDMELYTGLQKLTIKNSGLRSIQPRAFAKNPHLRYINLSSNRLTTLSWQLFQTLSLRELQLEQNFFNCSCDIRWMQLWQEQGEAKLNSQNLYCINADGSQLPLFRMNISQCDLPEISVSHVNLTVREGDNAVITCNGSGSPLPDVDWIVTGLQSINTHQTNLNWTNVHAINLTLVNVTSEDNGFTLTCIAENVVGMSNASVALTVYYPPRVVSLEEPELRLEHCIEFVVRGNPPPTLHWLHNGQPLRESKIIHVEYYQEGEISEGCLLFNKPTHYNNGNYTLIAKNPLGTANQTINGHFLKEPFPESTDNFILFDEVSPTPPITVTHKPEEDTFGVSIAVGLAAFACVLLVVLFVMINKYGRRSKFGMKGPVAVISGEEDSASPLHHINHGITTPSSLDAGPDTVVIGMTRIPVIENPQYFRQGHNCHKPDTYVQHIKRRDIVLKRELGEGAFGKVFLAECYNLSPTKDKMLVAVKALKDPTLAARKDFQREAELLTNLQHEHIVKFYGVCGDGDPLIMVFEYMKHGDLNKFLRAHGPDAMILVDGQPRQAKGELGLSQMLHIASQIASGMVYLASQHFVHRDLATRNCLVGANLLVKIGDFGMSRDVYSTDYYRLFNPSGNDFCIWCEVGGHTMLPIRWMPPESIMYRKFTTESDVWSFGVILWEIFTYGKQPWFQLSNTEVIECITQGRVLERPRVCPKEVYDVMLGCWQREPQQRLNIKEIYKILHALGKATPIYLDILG
Source text: as §1, §2, §3, §6

[6] = target: T6, BaF3-CD74-NTRK1 (Homo sapiens, UniProt P04629); test: Cell proliferation inhibition (CCK-8), BaF3-CD74-NTRK1 stable strain; assay type: cell-based, mouse; conditions: BaF3-CD74-NTRK1, 72 hours
T6 construct: fused on or other part: P04233 (HLA class II histocompatibility antigen gamma chain)
T6 sequence (P04629 510-796 limits assumed): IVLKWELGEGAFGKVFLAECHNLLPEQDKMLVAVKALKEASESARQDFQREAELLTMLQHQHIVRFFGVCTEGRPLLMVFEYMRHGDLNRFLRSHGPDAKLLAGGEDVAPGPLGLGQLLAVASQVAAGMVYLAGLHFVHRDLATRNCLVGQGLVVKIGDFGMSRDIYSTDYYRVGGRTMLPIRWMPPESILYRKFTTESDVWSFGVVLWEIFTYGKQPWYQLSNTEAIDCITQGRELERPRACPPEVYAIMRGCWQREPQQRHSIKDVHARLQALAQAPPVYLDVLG
Procedure: as §7, §8

T1 sequence (Q16620 32-822): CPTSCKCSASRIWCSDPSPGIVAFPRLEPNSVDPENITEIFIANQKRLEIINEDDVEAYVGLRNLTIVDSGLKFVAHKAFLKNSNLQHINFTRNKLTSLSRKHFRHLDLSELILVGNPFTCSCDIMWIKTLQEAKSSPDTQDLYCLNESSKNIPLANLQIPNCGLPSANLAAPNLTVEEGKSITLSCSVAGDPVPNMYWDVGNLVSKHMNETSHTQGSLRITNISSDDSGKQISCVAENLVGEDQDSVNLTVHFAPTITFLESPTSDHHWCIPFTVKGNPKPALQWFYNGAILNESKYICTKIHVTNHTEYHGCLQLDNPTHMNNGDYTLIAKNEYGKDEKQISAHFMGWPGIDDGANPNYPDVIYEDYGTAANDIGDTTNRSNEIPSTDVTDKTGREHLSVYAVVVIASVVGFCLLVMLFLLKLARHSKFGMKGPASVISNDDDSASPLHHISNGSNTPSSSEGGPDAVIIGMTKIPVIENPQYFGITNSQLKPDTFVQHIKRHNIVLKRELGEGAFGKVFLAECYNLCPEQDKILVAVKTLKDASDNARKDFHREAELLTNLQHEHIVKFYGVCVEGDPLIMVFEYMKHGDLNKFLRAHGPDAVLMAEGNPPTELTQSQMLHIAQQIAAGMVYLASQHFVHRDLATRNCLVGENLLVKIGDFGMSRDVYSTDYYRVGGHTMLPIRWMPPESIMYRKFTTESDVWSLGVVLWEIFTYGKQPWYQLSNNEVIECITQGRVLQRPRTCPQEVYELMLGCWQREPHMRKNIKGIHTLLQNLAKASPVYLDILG

Row | IC50 [1] | IC50 [2] | IC50 [3] | IC50 [4] | IC50 [5] | IC50 [6] | Compound
1 | 14.8 nM | 10.6 nM | 168 nM | 98.4 nM | 4.2 nM | 69 nM | Cc1cccc(/C=C/c2n[nH]c3ccc(Cc4cc(F)cc(F)c4)cc23)n1 [DYX-09, (E)-5-(3,5-difluorobenzyl)-3-(2-(6-methylpyridin-2-yl)vinyl)-1H-indazole]
2 | 3.2 nM | 9.2 nM | 394 nM | 777 nM | 18.8 nM | 630 nM | Fc1cc(F)cc(Cc2ccc3[nH]nc(/C=C/c4ccccc4F)c3c2)c1 [DYX-10, (E)-5-(3,5-difluorobenzyl)-3-(2-fluorostyryl)-1H-indazole]
3 | 353 nM |  | 2270 nM | 2620 nM | 226 nM |  | Fc1cc(F)cc(Nc2ccc3[nH]nc(/C=C/c4ccccn4)c3c2)c1 [DYX-105, (E)-N-(3,5-difluorophenyl)-3-(2-(pyridin-2-yl)vinyl)-1H-indazol-5-amine]
4 | > 1000 nM | 598 nM | > 10000 nM | > 10000 nM |  | > 10000 nM | Fc1cc(F)cc(C#Cc2ccc3[nH]nc(/C=C/c4ccccn4)c3c2)c1 [DYX-183, (E)-5-((3,5-difluorophenyl)ethynyl)-3-(2-(pyridin-2-yl)vinyl)-1H-indazole]
5 |  |  | 156 nM | 610 nM |  | 68.9 nM | O=S(=O)(c1cc(F)cc(F)c1)c1ccc2[nH]nc(/C=C/c3ccccc3F)c2c1 [Example E01F10, (E)-5-((3,5-difluorophenyl)sulfonyl)-3-(2-fluorostyryl)-1H-indazole]

Second part, the compound before the results:

Row | Compound | IC50 [1] | IC50 [2] | IC50 [3] | IC50 [4] | IC50 [5] | IC50 [6]
6 | Fc1cc(F)cc(Cc2ccc3[nH]nc(C#Cc4ccccn4)c3c2)c1 [CCB-484, 5-(3,5-difluorobenzyl)-3-(pyridin-2-ylethynyl)-1H-indazole] | 83.8 nM | 34 nM | 477 nM | 1970 nM | 11.8 nM | 820 nM
7 | Fc1cc(F)cc(Cc2ccc3[nH]nc(/C=C/c4ccccn4)c3c2)c1 [CCB-489, (E)-5-(3,5-difluorobenzyl)-3-(2-(pyridin-2-yl)vinyl)-1H-indazole] | 14.4 nM | 4.6 nM | 56.2 nM | 165 nM | 2.7 nM | 146 nM
8 | Fc1cc(F)cc(Cc2ccc3[nH]nc(/C=C/c4cccnc4)c3c2)c1 [DYX-03, (E)-5-(3,5-difluorobenzyl)-3-(2-(pyridin-3-yl)vinyl)-1H-indazole] | 10.9 nM | 4 nM | 75.2 nM | 157 nM | 8.6 nM | 126 nM
9 | Fc1cc(F)cc(Cc2ccc3[nH]nc(/C=C/c4cccs4)c3c2)c1 [DYX-04, (E)-5-(3,5-difluorobenzyl)-3-(2-(thiophen-2-yl)vinyl)-1H-indazole] | 32.4 nM | 21.8 nM | 240 nM | 728 nM | 5.1 nM | 174 nM
10 | Fc1cc(F)cc(Cc2ccc3[nH]nc(/C=C/c4cnccn4)c3c2)c1 [DYX-05, (E)-5-(3,5-difluorobenzyl)-3-(2-(pyrazin-2-yl)vinyl)-1H-indazole] | 10.9 nM | 1.6 nM | 419 nM | 678 nM | 6 nM | 580 nM
11 | Fc1cc(F)cc(Cc2ccc3[nH]nc(/C=C/c4ccc5ccccc5n4)c3c2)c1 [DYX-06, (E)-2-(2-(5-(3,5-difluorobenzyl)-1H-indazol-3-yl)vinyl)quinoline] | 87.1 nM | 14.1 nM | 492 nM | 723 nM | 77.4 nM | 640 nM
12 | Fc1cc(F)cc(Cc2ccc3[nH]nc(/C=C/c4ccccc4)c3c2)c1 [DYX-07, (E)-5-(3,5-difluorobenzyl)-3-styryl-1H-indazole] | 40.3 nM | 10.6 nM | 284 nM | 968 nM | 104 nM | 211 nM
